Source: US20240366649A1, “4-ETHYNYL-3-HYDROXY-TETRAHYDROFURANYL-ADENINE PHOSPHORAMIDATES AND RELATED COMPOUNDS AND THEIR USE IN TREATING MEDICAL CONDITIONS” (ROME THERAPEUTICS, INC., priority 2021, published 2024)
Several values for one entry are separate records, joined by “and”; a condition that tells them apart may be missing. Equal entries are not always repeated.

Key:
Assay type in all cases: cell-based
[1] = tested on: IFN production in THP1 TREX1 KO cells; assay: Cellular assay for altering IFN production in THP1 TREX1 KO cells; conditions: for change in IFN levels (figure): FIG. 6-8, % induction versus compound concentration; for EC50 / IC50: Homo sapiens; for Concentration at Max Induct.: lowest concentration at which the maximum-fold IFN induction was observed; for Maximum IFN Induction: maximum-fold IFN induction, 1 μM 5-aza-2′-deoxycytidine; for IC50: inhibitors of IFN
Description: (§1) THP1-Dual™ KO-TREX1 cells were purchased from Invivogen (cat #thpd-kotrex). The THP1-Dual™ KO-TREX1 cells were cultured in RPMI 1640, 10% heat-inactivated fetal bovine serum, 25 mM HEPES, 10 μg/mL Blasticidin, and […] Zeocin. THP1-Dual™ KO-TREX cells were treated with a dose titration of test compound in the presence of 1 μM 5-aza-2′-deoxycytidine (Sigma, cat #189825). Type 1 Interferon and cell viability were assessed after five days of treatment.
Stock solution of test compound was prepared in DMSO followed by a three-fold dilution in DMSO. Additional 50× dilution was prepared in cell culture media for each dilution. 10 μL of diluted test compound was then added to a 384-well plate.
(§2) THP1-Dual™ KO-TREX1 cells were treated with 1 μM 5-aza-2′-deoxycytidine. THP1-Dual™ KO-TREX1 cells (50 μL) were added to each well of the 384-well plate containing test compound titration at 10,000 cells/well. Cells were incubated at 37° C., 5% CO2 in a humidified incubator for five days. On day five, 20 μL of cell supernatant was transferred to a 384-well, white-walled plate, followed by addition to each well of 50 μL of QUANTI-LUC solution containing stabilizer. Luminescence was detected on a plate reader according to manufacturer's instructions.
(§3) For certain compounds, the assay was run in a 96-well format, with the following modifications: • 190 μL, instead of 50 μL, of cells were added to each well, to provide 50,000 cells/well, instead of 10,000 cells/well, • Cells were incubated for 6 days, instead of 5 days, • 25 μL, instead of 20 μL, of cell supernatant was added to the white-walled plate for QUANT-LUC treatment; and • 25 μL, instead of 30 μL, of CellTiter-Glo was added to assess cell viability.
Percent inhibition of interferon was calculated using the following analysis: (Average DMSO-Sample)/(Average DMSO-Average 30 μM control reagent)*100. The control reagent for inhibition of interferon was a specific nucleoside reverse-transcriptase inhibitor with molecular weight <600 a.m.u. Percent induction of interferon was calculated using the following analysis: (Sample-Average DMSO)/(10 μM control reagent-Average DMSO)*100. The control reagent for induction of interferon was compound 8 (4′-ethynyl-2-chloro-2′-deoxyadenosine).

[2] = molecular target: T1, LINE1 reverse transcriptase (Homo sapiens, UniProt O00370); assay: Transient artificial-intron Cis LINE1 reporter assay; design: expressed in transfected cells; conditions: HEK 293 cells; ratio FLuc/RLuc reports LINE1 activity; tested up to 100 μM; read-out: IC50 for inhibiting FLuc luminescence
T1 sequence (O00370 whole entry, looked up): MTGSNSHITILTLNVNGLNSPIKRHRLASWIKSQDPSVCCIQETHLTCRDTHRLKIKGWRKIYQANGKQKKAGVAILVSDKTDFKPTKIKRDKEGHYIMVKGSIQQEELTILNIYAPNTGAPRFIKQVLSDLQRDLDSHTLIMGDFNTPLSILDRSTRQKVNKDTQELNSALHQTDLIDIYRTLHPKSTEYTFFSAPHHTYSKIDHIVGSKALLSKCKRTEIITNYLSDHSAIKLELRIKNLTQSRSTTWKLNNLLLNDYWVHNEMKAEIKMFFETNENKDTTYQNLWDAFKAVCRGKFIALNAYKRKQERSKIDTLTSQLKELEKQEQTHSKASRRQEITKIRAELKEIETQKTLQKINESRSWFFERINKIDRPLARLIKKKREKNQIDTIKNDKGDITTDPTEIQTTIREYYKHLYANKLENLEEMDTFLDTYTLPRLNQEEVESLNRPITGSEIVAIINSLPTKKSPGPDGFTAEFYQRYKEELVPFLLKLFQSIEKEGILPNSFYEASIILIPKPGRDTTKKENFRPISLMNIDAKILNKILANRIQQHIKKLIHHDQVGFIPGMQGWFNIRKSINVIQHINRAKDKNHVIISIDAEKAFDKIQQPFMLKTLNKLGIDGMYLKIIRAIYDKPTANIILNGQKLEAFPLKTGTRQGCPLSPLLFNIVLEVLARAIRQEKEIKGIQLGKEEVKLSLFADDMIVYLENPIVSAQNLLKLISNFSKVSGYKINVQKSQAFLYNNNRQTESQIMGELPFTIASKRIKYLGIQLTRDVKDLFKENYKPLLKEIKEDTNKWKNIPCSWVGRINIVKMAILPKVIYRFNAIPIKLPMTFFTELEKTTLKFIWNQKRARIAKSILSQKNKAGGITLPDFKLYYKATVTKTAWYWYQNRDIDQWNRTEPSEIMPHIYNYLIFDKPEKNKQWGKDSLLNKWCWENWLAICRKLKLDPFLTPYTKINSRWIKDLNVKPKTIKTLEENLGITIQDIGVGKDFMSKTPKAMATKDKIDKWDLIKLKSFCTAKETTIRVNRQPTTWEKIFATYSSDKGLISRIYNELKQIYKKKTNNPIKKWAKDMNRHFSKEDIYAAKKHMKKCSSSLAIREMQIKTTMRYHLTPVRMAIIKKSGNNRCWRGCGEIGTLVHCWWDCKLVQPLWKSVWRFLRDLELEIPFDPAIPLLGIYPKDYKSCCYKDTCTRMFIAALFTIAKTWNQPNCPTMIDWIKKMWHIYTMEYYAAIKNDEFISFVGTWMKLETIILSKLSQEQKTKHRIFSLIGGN
Description: Intron-disrupted Firefly luciferase (FLuc) expression cassettes were generated as described by Xie, Y. et al. “Characterization of L1 retrotransposition with high-throughput dual-luciferase assays,” Nucleic Acid Res. (2011) Vol. 39, No. 3, e16. In addition, the plasmid contained an intact Renilla luciferase (RLuc) expression cassette on the vector backbone, in order to normalize transfection efficiency and measure potential cell toxicity.
HEK 293 cells were seeded in 96-well plates at 1,000 cells/well in 55 μL and grown for 24 hours. Cells were transfected with FuGeneHD (Promega) following the manufacturer's protocol. Each well received 0.133 ng plasmid, 0.4 μL FuGeneHD reagent, and 4.5 μL GlutaMAX-I-supplemented Opti-MEM I reduced-serum medium (Invitrogen). Cells were simultaneously treated with test compound serially diluted starting at 100 μM in a 3-fold dilution dose response.
Luminescence was measured using the Dual-Glo Luciferase Assay System (Promega) following the manufacturer's instructions. The ratio between FLuc and RLuc gene expression was used to report LINE1 activity.

[3] = molecular target: T1, LINE1 reverse transcriptase; assay: Stable artificial-intron Cis LINE1 reporter assay; design: expressed in transfected cells; conditions: HeLa L1 artificial-intron reporter cells, doxycycline-induced, 72 h, Firefly luciferase activity
Source text: A stable HeLa Tet-On 3G (Takara, cat no 631183) cell line expressing a bi-directional inducible LINE1 construct was generated as described in Xie, Y. et al. “Cell division promotes efficient retrotransposition in a stable L1 reporter cell line,” Mobile DNA (2013) 4:10. Single cell clones were screened for high Luciferase expression and the highest expression Firefly expressing clone was chosen for compound testing.
Test compounds were serially diluted in DMSO and spotted in 96-well plates. Subsequently the HeLa L1 artificial-intron reporter cells were plated into the compound-containing wells (8,000 cells/well), and the cells were induced for reporter expression with doxycycline (Sigma cat no D9891) at a final concentration of 500 ng/mL. Luminescence was measured 72 h after plating using the Dual-Glo Luciferase Assay System (Promega cat no E2940) following the manufacturer's instructions. The Firefly Luciferase activity (normalized against its activity in a control well without test compound) was used to report LINE1 activity.

[4] = tested on: THP1-Dual™ KO-TREX1 cells; assay: CellTiter-Glo cell viability in THP1-Dual KO-TREX1 cells; conditions: Homo sapiens, 120 h, CellTiter-Glo inhibition of cell viability, after five days of treatment, read-out: CTG IC50
Description: as §1, §2, §3
The remaining cells were assessed for cell viability by adding 30 μl of CellTiter-Glo (Promega, G9683) solution to each well, and placed on a shaker for 10 minutes at room temperature. Luminescence was detected on a plate reader, according to manufacturer's instructions. Percent inhibition of cell viability using CellTiter-Glo was calculated using the following analysis: (Average DMSO-Sample)/(Average DMSO-Average 20 μM control reagent)*100. The control reagent was Z-Leu-Leu-leucinal (see, for example, https://pubchem.ncbi.nlm.nib.gov/compound/462382).

[5] = THP-1, 120 h, inducers of IFN, in the presence of 1 μM 5-aza-2′-deoxycytidine, five days
[6] = THP-1, another experiment testing the same compound (not the one of Table 7)
[7] = THP-1, 120 h, in the presence of 1 μM 5-aza-2′-deoxycytidine, five days

SMILES	IC50 [2] [µM]	IC50 [3]	EC50 [1, 5] [µM]	IC50 [4] [µM]	further results
C#C[C@]1(CO)O[C@@H](n2cnc3c(N)ncnc32)C[C@@H]1O [4′-ethynyl-2′-deoxyadenosine, reference compound]	0.041	≤ 0.05 µM			change in IFN levels (figure) [1]: induction of IFN
Cc1cn([C@H]2C[C@H](N=[N+]=[N-])[C@@H](CO)O2)c(=O)[nH]c1=O [AZT (zidovudine), Zidovudine, reference compound]	> 100	> 0.5 µM			
C#C[C@]1(CO)O[C@@H](n2cnc3c(N)nc(Cl)nc32)C[C@@H]1O [Compound 8, 4′-ethynyl-2-chloro-2′-deoxyadenosine, reference compound]	0.0083	≤ 0.05 µM			change in IFN levels (figure) [1]: induction of IFN
C#C[C@]1(CO[P@@](=O)(N[C@@H](C)C(=O)OC(C)C)Oc2ccccc2)O[C@@H](n2cnc3c(N)nc(Cl)nc32)C[C@@H]1O [Compound I-1, Isopropyl ((S)-(((2R,3S,5R)-5-(6-amino-2-chloro-9H-purin-9-yl)-2-ethynyl-3-hydroxytetrahydrofuran-2-yl)methoxy)(phenoxy)phosphoryl)-L-alaninate]		0.05 to 0.5 µM and ≤ 0.05 µM	1 to 10	> 10	Concentration at Max Induct. [1]: 10 µM; Maximum IFN Induction ([1]; five days): >> (values from 1.50 to 2.00)
C#C[C@]1(CO[P@@](=O)(N[C@@H](C)C(=O)OC(C)C)Oc2ccccc2)O[C@@H](n2cnc3c(N)nc(F)nc32)C[C@@H]1O [Compound I-18]		0.05 to 0.5 µM	> 10		
C#C[C@]1(COP(=O)(O)N[C@@H](C)C(=O)OC(C)C)O[C@@H](n2cnc3c(N)nc(Cl)nc32)C[C@@H]1O [Compound I-47, [(2R,3S,5R)-5-(6-amino-2-chloropurin-9-yl)-2-ethynyl-3-hydroxyoxolan-2-yl]methoxy([(2S)-1-isopropoxy-1-oxopropan-2-yl]amino)phosphinic acid]		≤ 0.05 µM	1 to 10	> 10	EC50 ([1]; THP-1, experiment depicted in FIG. 11 / FIG. 12): < 1 µM; EC50 [1, 6]: > 10 µM; Concentration at Max Induct. [1]: 10 µM; Maximum IFN Induction ([1]; five days): >>> (values greater than 2.00)
C#C[C@]1(COP(=O)(O)N[C@H](C)C(=O)OC(C)C)O[C@@H](n2cnc3c(N)nc(Cl)nc32)C[C@@H]1O [Compound I-48]		≤ 0.05 µM	1 to 10	> 10	Concentration at Max Induct. [1]: 10 µM; Maximum IFN Induction ([1]; five days): > (values from 1.00 to less than 1.50)
C#C[C@]1(COP(=O)(O)N[C@@H](C)C(=O)OC(C)C)O[C@@H](n2cnc3c(N)nc(F)nc32)C[C@@H]1O [Compound I-49]		≤ 0.05 µM	> 10		
C#C[C@]1(COP(=O)(O)N[C@H](C)C(=O)OC(C)C)O[C@@H](n2cnc3c(N)nc(F)nc32)C[C@@H]1O [Compound I-50]		0.05 to 0.5 µM			
C#C[C@]1(CO[P@](=O)(N[C@@H](C)C(=O)OC(C)C)Oc2ccccc2)O[C@@H](n2cnc3c(N)nc(F)nc32)C[C@@H]1O [Compound I-54]		≤ 0.05 µM	< 1	> 10	EC50 [1, 6]: > 10 µM
C#C[C@]1(COP(=O)(N[C@@H](C)C(=O)OC(C)C)OCOC(=O)OC(C)C)O[C@@H](n2cnc3c(N)nc(Cl)nc32)C[C@@H]1O (stereo partly drawn) [I-14 and I-15, isopropyl (2S)-2-({[(2R,3S,5R)-5-(6-amino-2-chloropurin-9-yl)-2-ethynyl-3-hydroxyoxolan-2-yl]methoxy([(isopropoxycarbonyl)oxy]methoxy)phosphoryl}amino)propanoate]		> 0.5 µM			
C#C[C@@]12COP(=O)(OC(C)C)O[C@H]1C[C@H](n1cnc3c(N)nc(Cl)nc31)O2 (some centres unmarked) [IV-1]		0.05 to 0.5 µM			
C#C[C@@]12COP(=O)(N[C@H](C)C(=O)OC(C)C)O[C@H]1C[C@H](n1cnc3c(N)nc(Cl)nc31)O2 (some centres unmarked) [IV-5]		0.05 to 0.5 µM	> 10		
C#C[C@@]12COP(=O)(N[C@@H](C)C(=O)OC(C)C)O[C@H]1C[C@H](n1cnc3c(N)nc(Cl)nc31)O2 (stereo partly drawn) [IV-6, isopropyl (2S)-2-{[(4aR,6R,7aS)-6-(6-amino-2-chloropurin-9-yl)-4a-ethynyl-2-oxo-tetrahydro-2lambda5-furo[3,2-d][1,3,2]dioxaphosphinin-2-yl]amino}propanoate]		0.05 to 0.5 µM		3.1	IC50 [1, 7]: < 1 µM
C#C[C@@]12COP(=O)(OC(C)C)O[C@H]1C[C@H](n1cnc3c(N)nc(F)nc31)O2 (some centres unmarked) [IV-10]		≤ 0.05 µM			
C#C[C@@]12COP(=O)(N[C@H](C)C(=O)OC(C)C)O[C@H]1C[C@H](n1cnc3c(N)nc(F)nc31)O2 (some centres unmarked) [IV-12]		0.05 to 0.5 µM		> 10	IC50 [1, 7]: 1 to 5 µM
C#C[C@@]12COP(=O)(N[C@@H](C)C(=O)OC(C)C)O[C@H]1C[C@H](n1cnc3c(N)nc(F)nc31)O2 (some centres unmarked) [IV-13]		0.05 to 0.5 µM		2.5	IC50 [1, 7]: < 1 µM
Nc1ccn([C@H]2CO[C@@H](CO)S2)c(=O)n1 [apricitabine]	> 100				
Nc1ccn([C@@H]2CS[C@H](CO)O2)c(=O)n1 [lamivudine (3TC), Lamivudine, reference compound]	> 100	> 0.5 µM			
Nc1nc(=O)c2ncn([C@@H]3C[C@H](CO)[C@H]3CO)c2[nH]1 [lobucavir, reference compound]	> 100	> 0.5 µM			
